# Assay results published in publication PMC10447463, “Data-mining unveils structure–property–activity correlation of viral infectivity enhancing self-assembling peptides” (Nature Communications, 2023).
# Where two headings read alike, the source gives them in different places.
# Legend:
# [1] = system: HIV-1 infection of TZM-bl cells; test: HIV-1 infectivity enhancement assay, β-galactosidase luminescence; assay type: cell-based; conditions: for Log10 Inf. rel. to EF-C: log10 of HIV-1 infection of TZM-bl cells relative to EF-C, Fig S15 source data, asymmetric std dev errors; for Log10 Infection Rel EF-C: log10 of infection relative to EF-C; for Absolute Infectivity / RLU /s (Feb2021): figures match the 1.3 µM column
# [2] = assay type: physicochemical; set-up: key to Fibril / Fibril Formation / TEM 2cat / Fibril: 1 = fibrils present; 0 non-fibrillar structures; conditions: for Fibril / Fibril Formation: TEM, 1 mg/mL, uranyl acetate stain, qualitative
# [3] = assay type: physicochemical; conditions: for ThT Cat. / ThT-Fluorescence (categorical): ThT-active if fluorescence at least twice the control
# In short: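 Fibrils (1 mg/mL solution) were mixed with 50 µM ThT in PBS for 15 min at RT, and fluorescence was read at λex 440/λem 488 nm against a PBS blank, as a triplicate mean ± SD. Zeta potential came from electrophoretic mobility (Smoluchowski) after 1 d aggregation at 1 mg/mL in PBS pH 7.4, diluted into 1 mM KCl.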
# [4] = infectivity class (low / medium / high) of each library peptide, main list in c1-c6, same classes repeated in sub-lists of sequences containing the hydrophobicity/charge patterns P+,H0,P+,H0,P0,H0,P0, P+,H0,P0,H0,P0,H0,P0, P+,H0,P0,H0
# [5] = n-fold infection vs virus only, relative to that of EF-C, 1.3 µM peptide
# [6] = Feb2021 run, infectivity n-fold relative to virus alone
# [7] = Feb2021 run, log10 of infectivity relative to EF-C
# [8] = Feb2021 run, n-fold infectivity relative to EF-C
# [9] = infectivity class (low / medium / high) of the peptide in the sequence-pattern analysis, Fig. S22-A4, class limits not given
# [10] = ThT fluorescence relative to blank (42.1851851851852 a.u.)
# [11] = relative to blank 42.1851851851852 a.u.
# [12] = Feb2021, infectivity relative to virus only
# [13] = Feb2021, log10 of infectivity relative to EF-C
# [14] = Feb2021, n-fold infectivity relative to EF-C
# [15] = ThT fluorescence relative to blank, blank = 42.1851851851852
# [16] = infectivity enhancement relative to EF-C (=1), Feb2021 run
# [17] = infectivity n-fold relative to virus only, Feb2021 run
# [18] = log10 of infectivity relative to EF-C, Feb2021 run
substance,measurement,setting,value
NMWQKIKQII [JG8],infectivity,[1]; [4],low
same,Log10 Inf. rel. to EF-C,[1],-1.5971
same,"TEM: 1= fibrils, 0= aggregates (micelle), 0.5 = aggregates and fibrils, -1 = nothing obersved, STD prep",[2]; FigS26,0
same,Tht category (> 1.5 to blank = +),[3]; FigS26,0 (Tht category (> 1.5 to blank = +))
CRLSLSLS,Inf. rel. EF-C,"[1]; HIV-1 infection relative to EF-C, Fig 23 plot, panels A and B, mean of 3 values",0.3134
same,Inf. rel. EF-C,"[1]; HIV-1 infection relative to EF-C, Fig 23 plot, single data point, replicate 2",0.2799
same,Inf. rel. EF-C,"[1]; HIV-1 infection relative to EF-C, Fig 23 plot, single data point, replicate 3",0.2877
same,Log10 Infection Rel EF-C,[1]; Figure 6C,-0.5039
same,Inf. rel. EF-C,[1]; [5],0.31
same,Fibril / Fibril Formation,[2],1
same,ThT Cat. / ThT-Fluorescence (categorical),[3],0 (ThT-inactive (N-Fold <2))
RGDKIKIQINMWQ [MG9a],Log10 of Rel to EFC (Feb2021),"[1]; Feb2021, Log10 of infectivity relative to EF-C",-0.1175
same,Rel-to EFC (Feb-2021),"[1]; Feb2021, n-fold enhancement relative to EF-C",0.763
same,n-fold to virus (Feb2021),[1]; [6],32.06
same,Log10 of Rel to EFC (Feb2021),[1]; [7],-0.1175
same,Rel-to EFC (Feb-2021),[1]; [8],0.763
same,infectivity,[1]; [4],high
same,infectivity,[1]; [9],high
same,Log10 Inf. rel. to EF-C,[1],-0.1175
same,"TEM: 1= fibrils, 0= aggregates (micelle), 0.5 = aggregates and fibrils, -1 = nothing obersved, STD prep",[2],0.5
same,Tht category (> 1.5 to blank = +),[3]; FigS26,0 (Tht category (> 1.5 to blank = +))
same,Tht rel to blank (42.1851851851852),[3]; [10],1.781
same,Tht category (> 1.5 to blank = +),[3]; category 1/0,0 (ThT-inactive (N-Fold <2))
same,Tht rel to blank (42.1851851851852),[3]; [11],1.781
KFQFNMW,Log10 Infection Rel EF-C,[1]; Figure 6C,-0.7437
same,Inf. rel. EF-C,[1]; [5],0.18
same,Fibril / Fibril Formation,[2],1
same,ThT Cat. / ThT-Fluorescence (categorical),[3],0 (ThT-inactive (N-Fold <2))
HHHHKAKAKAKAWWWW [TM8],Absolute Infectivity / RLU /s (Feb2021),[1]; Feb2021,3233 RLU /s
same,n-fold to virus (Feb2021),[1]; [12],3.76
same,Log10 of Rel to EFC (Feb2021),[1]; [13],-1.048
same,Rel-to EFC (Feb-2021),[1]; [14],0.08948
same,infectivity,[1]; [9],low
same,Log10 Inf. rel. to EF-C,[1],-1.048
same,"TEM: 1= fibrils, 0= aggregates (micelle), 0.5 = aggregates and fibrils, -1 = nothing obersved, STD prep",[2],0.5
same,Tht rel to blank (42.1851851851852),[3]; [15],3.672
same,Tht category (> 1.5 to blank = +),[3]; category 1/0,"1 (ThT. Cat is 1, if Rel. ThT >2)"
CKIWIQIY,Log10 Infection Rel EF-C,[1]; Figure 6C,-0.2415
same,Inf. rel. EF-C,[1]; [5],0.57
same,Fibril / Fibril Formation,[2],1
same,ThT Cat. / ThT-Fluorescence (categorical),[3],"1 (ThT. Cat is 1, if Rel. ThT >2)"
KIKIQIMWNQ [VH15],infectivity,[1]; [4],medium
same,Log10 Inf. rel. to EF-C,[1],-0.2495
same,"TEM: 1= fibrils, 0= aggregates (micelle), 0.5 = aggregates and fibrils, -1 = nothing obersved, STD prep",[2]; FigS26,1
same,Tht category (> 1.5 to blank = +),[3]; FigS26,0 (Tht category (> 1.5 to blank = +))
KIKIQII [TG1 / (KM4)],Absolute Infectivity / RLU /s (Feb2021),[1]; Feb2021,400 RLU /s
same,n-fold to virus (Feb2021),[1]; [12],0.7843
same,Log10 of Rel to EFC (Feb2021),[1]; [13],-1.729
same,Rel-to EFC (Feb-2021),[1]; [14],0.01867
same,n-fold to virus (Feb2021),[1]; [6],0.7843
same,Log10 of Rel to EFC (Feb2021),[1]; [7],-1.729
same,Rel-to EFC (Feb-2021),[1]; [8],0.01867
same,infectivity,[1]; [4],low
same,infectivity,[1]; [9],low
same,Rel-to EFC (Feb-2021),[1]; [16],0.01867
same,n-fold to virus (Feb2021),[1]; [17],0.7843
same,Log10 Inf. rel. to EF-C,[1],-1.729
same,Log10 of Rel to EFC (Feb2021),[1]; [18],-1.729
same,"TEM: 1= fibrils, 0= aggregates (micelle), 0.5 = aggregates and fibrils, -1 = nothing obersved, STD prep",[2],1
same,Tht rel to blank (42.1851851851852),[3]; [10],1.392
same,Tht rel to blank (42.1851851851852),[3]; [15],1.392
same,Tht category (> 1.5 to blank = +),[3]; category 1/0,0 (ThT-inactive (N-Fold <2))
same,Tht rel to blank (42.1851851851852),[3]; [11],1.392
KIKIQIII [TG7],Absolute Infectivity / RLU /s (Feb2021),[1]; Feb2021,8260 RLU /s
same,n-fold to virus (Feb2021),[1]; [12],14.84
same,Log10 of Rel to EFC (Feb2021),[1]; [13],-0.452
same,Rel-to EFC (Feb-2021),[1]; [14],0.3531
same,n-fold to virus (Feb2021),[1]; [6],14.84
same,Log10 of Rel to EFC (Feb2021),[1]; [7],-0.452
same,Rel-to EFC (Feb-2021),[1]; [8],0.3531
same,infectivity,[1]; [4],medium
same,Rel-to EFC (Feb-2021),[1]; [16],0.3531
same,n-fold to virus (Feb2021),[1]; [17],14.84
same,Log10 Inf. rel. to EF-C,[1],-0.4521
same,Log10 of Rel to EFC (Feb2021),[1]; [18],-0.452
same,"TEM: 1= fibrils, 0= aggregates (micelle), 0.5 = aggregates and fibrils, -1 = nothing obersved, STD prep",[2],1
same,Tht rel to blank (42.1851851851852),[3]; [10],2.287
same,Tht rel to blank (42.1851851851852),[3]; [15],2.287
same,Tht category (> 1.5 to blank = +),[3]; category 1/0,"1 (ThT. Cat is 1, if Rel. ThT >2)"
same,Tht rel to blank (42.1851851851852),[3]; [11],2.287
KIKIKIKIWWWW [TM12],n-fold to virus (Feb2021),[1]; [6],24.74
same,Log10 of Rel to EFC (Feb2021),[1]; [7],-0.2301
same,Rel-to EFC (Feb-2021),[1]; [8],0.5888
same,infectivity,[1]; [4],medium
same,Log10 Inf. rel. to EF-C,[1],-0.2301
same,"TEM: 1= fibrils, 0= aggregates (micelle), 0.5 = aggregates and fibrils, -1 = nothing obersved, STD prep",[2],0
same,Tht category (> 1.5 to blank = +),[3]; category 1/0,"1 (ThT. Cat is 1, if Rel. ThT >2)"
same,Tht rel to blank (42.1851851851852),[3]; [11],2.303
KFKFQFNMW [BL5 / KB13],n-fold to virus (Feb2021),[1]; [6],18.76
same,Log10 of Rel to EFC (Feb2021),[1]; [7],-0.3503
same,Rel-to EFC (Feb-2021),[1]; [8],0.4464
same,infectivity,[1]; [4],medium
same,Log10 Inf. rel. to EF-C,[1],-0.3503
same,"TEM: 1= fibrils, 0= aggregates (micelle), 0.5 = aggregates and fibrils, -1 = nothing obersved, STD prep",[2],1
same,Tht category (> 1.5 to blank = +),[3]; category 1/0,0 (ThT-inactive (N-Fold <2))
same,Tht rel to blank (42.1851851851852),[3]; [11],1.342
RLRLTLC [CN13],Absolute Infectivity / RLU /s (Feb2021),[1]; Feb2021,1334 RLU /s
same,n-fold to virus (Feb2021),[1]; [12],2.165
same,Log10 of Rel to EFC (Feb2021),[1]; [13],-1.288
same,Rel-to EFC (Feb-2021),[1]; [14],0.05153
same,infectivity,[1]; [4],low
same,Log10 Inf. rel. to EF-C,[1],-1.288
same,"TEM: 1= fibrils, 0= aggregates (micelle), 0.5 = aggregates and fibrils, -1 = nothing obersved, STD prep",[2],1
same,Tht rel to blank (42.1851851851852),[3]; [15],1.899
same,Tht category (> 1.5 to blank = +),[3]; category 1/0,0 (ThT-inactive (N-Fold <2))
CEFEFQF [KB12],infectivity,[1]; [4],low
same,Rel-to EFC (Feb-2021),[1]; [16],0.003272
same,n-fold to virus (Feb2021),[1]; [17],0.1375
same,Log10 Inf. rel. to EF-C,[1],-2.283
same,Log10 of Rel to EFC (Feb2021),[1]; [18],-2.485
same,"TEM: 1= fibrils, 0= aggregates (micelle), 0.5 = aggregates and fibrils, -1 = nothing obersved, STD prep",[2],0
same,Tht rel to blank (42.1851851851852),[3]; [10],2.788
KLVFFAK [reference compound],Log10 Infection Rel EF-C,[1]; Figure 7B,-1.15
same,Inf. rel. EF-C,[1]; [5],0.07
same,Fibril / Fibril Formation,[2],1
same,ThT Cat. / ThT-Fluorescence (categorical),[3],0 (ThT-inactive (N-Fold <2))
RGDSGGGGGGKIKIQIC [TM114 / RC17],Rel-to EFC,"[1]; Fig S8 panels B, D, infectivity enhancement relative to EF-C",0.8654
same,n-fold to virus,"[1]; Fig S8 panels B, D, infectivity n-fold relative to virus alone",36.36
same,infectivity,[1]; [9],high
same,Log10 Inf. rel. to EF-C,[1],-0.0628
